Reference: patent US20110256238A1, “WOOD PRESERVATIVE AND WOOD PROCESSING METHOD” (SDS BIOTECH K.K., priority 2008, published 2011)

System: Trametes versicolor
Assay: Agar medium colony growth inhibition test on Trametes versicolor, with Colby synergy calculation
Type: cell-based
Conditions: single compound, 0.2 ppm, potato dextrose agar, 25° C., seventh day
Description: Each of 1% w/v dimethylsulfoxide solution of compound A, cyproconazole (manufactured by Wako Pure Chemical Industries, Ltd.), epoxyconazole (manufactured by Wako Pure Chemical Industries, Ltd.) and tetraconazole (manufactured by Wako Pure Chemical Industries, Ltd.) was prepared. The solutions diluted with dimethylsulfoxide were fully mixed in the sterilized potate dextrose agar medium, and 15 ml of the resultant medium was poured into a petri dish 90 mm in diameter and allowed to stand at room temperature. As a control, the potate dextrose agar medium added with dimethylsulfoxide only was also prepared. After the medium was solidified, the mycelia was scooped with the medium from the colony of Trametes versicolor as being a typical wood-decaying fungi, which had been cultivated in advance, using a cork baller 5 mm in diameter; and inoculated in the center of the test medium. The fungi was cultivated in the petri dish at 25° C., and the diameter of the colony spread from the source of inoculum was measured on the seventh day. The growth inhibition ratio by comparing the diameter of the test colony to that of the control was determined by the above-mentioned formula as an indication of the actual measured growth inhibition ratio. The theoretical efficacy ratio of the mixture of the active ingredients (i.e. theoretical growth inhibition ratio) was determined using the following Colby's formula (R. S. Colby, Weeds 15, 20-22 (1967)) to thereby be compared with the actual-measured efficacy ratio ([…]).
Colby's formula: E=x+y−x·y/100 [Formula 2]
E: theoretical efficacy ratio (theoretical growth inhibition ratio) represented by the ratio (%) to the control when the mixture of active compound B (concentration b) and C (concentration c) was used. x: efficacy ratio (growth inhibition ratio) represented by the ratio (%) to the control when active compound B was used at a concentration of b. y: efficacy ratio (growth inhibition ratio) represented by the ratio (%) to the control when active compound C was used at a concentration of c.

SMILES | Actual measured growth inhibition ratio (%)
Fc1ccc([C@]2(Cn3cncn3)O[C@H]2c2ccccc2Cl)cc1 (racemic) [Epoxiconazole] | 24
CC(C)c1cccc(NC(=O)c2ccccc2C(F)(F)F)c1 [Compound A, 3′-isopropyl-2-trifluoromethyl benzoic acid anilide] | 35
FC(F)C(F)(F)OCC(Cn1cncn1)c1ccc(Cl)cc1Cl (stereo not shown) [Tetraconazole] | 25
CC(C1CC1)C(O)(Cn1cncn1)c1ccc(Cl)cc1 (stereo not shown) [cyproconazole] | 33

System: Coniphora puteana
Assay: Agar medium colony growth inhibition test on Coniphora puteana
Type: cell-based
Conditions: 0.2 ppm in potato dextrose agar, 25° C., colony diameter on the seventh day vs control
Description: A predetermined amount of the solutions diluted with dimethylsulfoxide were fully mixed in the sterilized potato dextrose agar medium, and 15 ml of the resultant medium was poured into a petri dish 90 mm in diameter and allowed to stand at room temperature. As a control, the potato dextrose agar medium added with dimethylsulfoxide only was also prepared. […] The fungi was cultivated in the petri dish at 25° C., and the diameter of the colony spread from the source of inoculum was measured on the seventh day. The growth inhibition ratio between the diameter of the test colony and that of the control was determined by the following formula as an indication of the degree of inhibition. Compound A apparently had greater effects on Coniphora puteana compared to the compounds which had been disclosed in the past. Growth inhibition ratio (%)={(diameter of the control colony−diameter of the test colony)/diameter of the control colony}×100 [Formula 1]

SMILES | Degree of inhibition on Coniphora puteana at 0.2 ppm
CC(C)Oc1cccc(NC(=O)c2ccccc2C(F)(F)F)c1 [compound 1, 3′-isopropoxy-2-trifloromethyl benzoic acid anilide] | ▴ (inhibition ratio of 25 to 50%)
Cc1ccccc1C(=O)Nc1cccc(OC(C)C)c1 [compound 2, 3′-isopropoxy-2-methyl benzoic acid anilide] | ▴ (inhibition ratio of 25 to 50%)
Cc1ccccc1C(=O)Nc1cccc(C(C)C)c1 [compound 3, 3′-isopropyl-2-methyl benzoic acid anilide] | ▴ (inhibition ratio of 25 to 50%)
CC(C)c1cccc(NC(=O)c2ccccc2I)c1 [compound 4, 3′-isopropyl-2-iodobenzoic acid anilide] | ▴ (inhibition ratio of 25 to 50%)
CC(C)Oc1cccc(NC(=O)c2ccccc2I)c1 [compound 5, 3′-isopropoxy-2-iodobenzoic acid anilide] | ▴ (inhibition ratio of 25 to 50%)
CC(C)c1cccc(NC(=O)c2ccccc2[N+](=O)[O-])c1 [compound 6, 3′-isopropyl-2-nitrobenzoic acid anilide] | x (inhibition ratio of 25% or less)
CC(C)c1cccc(NC(=O)c2ccccc2Br)c1 [compound 7, 3′-isopropyl-2-bromobenzoic acid anilide] | ▴ (inhibition ratio of 25 to 50%)
O=C(Nc1ccccc1)c1ccccc1C(F)(F)F [compound 8, 2-trifloromethyl benzoic acid anilide] | x (inhibition ratio of 25% or less)
CC(C)c1ccccc1NC(=O)c1ccccc1C(F)(F)F [compound 9, 2′-isopropyl-2-trifloromethyl benzoic acid anilide] | x (inhibition ratio of 25% or less)
CC(C)c1ccc(NC(=O)c2ccccc2C(F)(F)F)cc1 [compound 10, 4′-isopropyl-2-trifloromethyl benzoic acid anilide] | x (inhibition ratio of 25% or less)
Cc1cccc(NC(=O)c2ccccc2C(F)(F)F)c1 [compound 11, 3′-methyl-2-trifloromethyl benzoic acid anilide] | ▴ (inhibition ratio of 25 to 50%)
CCc1cccc(NC(=O)c2ccccc2C(F)(F)F)c1 [compound 12, 3′-ethyl-2-trifloromethyl benzoic acid anilide] | ▴ (inhibition ratio of 25 to 50%)
O=C(Nc1cccc(C(F)(F)F)c1)c1ccccc1C(F)(F)F [compound 13, 2,3′-trifluoromethyl benzoic acid anilide] | x (inhibition ratio of 25% or less)
O=C(Nc1cccc(OC(F)(F)F)c1)c1ccccc1C(F)(F)F [compound 14, 3′-trifluoromethoxy-2-trifloromethyl benzoic acid anilide] | x (inhibition ratio of 25% or less)
O=C(Nc1cccc(F)c1)c1ccccc1C(F)(F)F [compound 15, 3′-fluoro-2-trifloromethyl benzoic acid anilide] | x (inhibition ratio of 25% or less)
O=C(Nc1cccc(Cl)c1)c1ccccc1C(F)(F)F [compound 16, 3′-chloro-2-trifloromethyl benzoic acid anilide] | x (inhibition ratio of 25% or less)
O=C(Nc1cccc(Br)c1)c1ccccc1C(F)(F)F [compound 17, 3′-bromo-2-trifloromethyl benzoic acid anilide] | x (inhibition ratio of 25% or less)
O=C(Nc1cccc(I)c1)c1ccccc1C(F)(F)F [compound 18, 3′-iodo-2-trifloromethyl benzoic acid anilide] | x (inhibition ratio of 25% or less)
Cc1ccc(C(C)C)cc1NC(=O)c1ccccc1C(F)(F)F [compound 19, 5′-isopropyl-2′-methyl-2-trifluoromethyl benzoic acid anilide] | x (inhibition ratio of 25% or less)

Same assay, conditions: 0.2 ppm in potato dextrose agar, 25° C., colony diameter on the seventh day vs control; read-out: Degree of inhibition on Coniphora puteana at 0.2 ppm

SMILES | inhibition at 0.2 ppm [%]
CC(C)c1cccc(NC(=O)c2ccccc2C(F)(F)F)c1 [Compound A, 3′-isopropyl-2-trifluoromethyl benzoic acid anilide] | ≥ 75

System: not given
Assay: not given
Conditions: not given

SMILES | melting point [°C]
CC(C)c1cccc(NC(=O)c2ccccc2C(F)(F)F)c1 [Compound A, 3′-isopropyl-2-trifluoromethyl benzoic acid anilide] | 98 to 101
